According to ChEMBL document CHEMBL1201862, “PubChem BioAssay data set” (2004):
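Assay format: 96-well plates, 48-hour exposure. Abbreviation: GI50, concentration required for 50% inhibition of growth.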 Active and inactive are the calls of the source. Cut-off read from the data, not from the text of the source: active = GI50 up to about 1.1 µM and inactive = higher.

Columns and labels:
Test in all cases: DTP human tumour cell line panel, 48 h
RPMI-8226 = test system: RPMI-8226
CAKI-1 = test system: CAKI-1
RXF 393 = test system: RXF 393
786-0 = test system: 786-0
MDA-MB-231 = test system: MDA-MB-231
UO-31 = test system: UO-31
EKVX = test system: EKVX
T47D = test system: T47D
MOLT-4 = test system: MOLT-4
SK-MEL-2 = test system: SK-MEL-2
HOP-62 = test system: HOP-62
OVCAR-8 = test system: OVCAR-8
SNB-75 = test system: SNB-75
UACC-257 = test system: UACC-257
NCI/ADR-RES = test system: NCI/ADR-RES
LOX IMVI = test system: LOX IMVI
HT-29 = test system: HT-29
CCRF-CEM = test system: CCRF-CEM
SK-MEL-28 = test system: SK-MEL-28

Compound | GI50 (RPMI-8226) | GI50 (CAKI-1) | GI50 (RXF 393) | GI50 (786-0) | GI50 (MDA-MB-231) | GI50 (UO-31) | GI50 (EKVX) | GI50 (T47D) | GI50 (MOLT-4) | GI50 (SK-MEL-2) | GI50 (HOP-62) | GI50 (OVCAR-8) | GI50 (SNB-75) | GI50 (UACC-257) | GI50 (NCI/ADR-RES) | GI50 (LOX IMVI) | GI50 (HT-29) | GI50 (CCRF-CEM) | GI50 (SK-MEL-28)
COC(=O)C1=C(C)NC2(O)C=CC(=O)C3C(=O)N(c4ccccc4)C(=O)C132 (configuration not stated) | 36.2 µM (inactive) | > 100 µM (inactive) | 83.4 µM (inactive) | 98.2 µM (inactive) | > 100 µM (inactive) | > 100 µM (inactive) | > 100 µM (inactive) | 36.8 µM (inactive) | 90.6 µM (inactive) | > 100 µM (inactive) | > 100 µM (inactive) | > 100 µM (inactive) | > 100 µM (inactive) | 90.8 µM (inactive) | > 100 µM (inactive) | 67.3 µM (inactive) | 23.3 µM (inactive) | 35 µM (inactive) | 32.5 µM (inactive)
O=[N+]([O-])c1ccc(N=P(c2ccccc2)(c2ccccc2)c2ccccc2)n2nnnc12 | 35.7 µM (inactive) | 45.1 µM (inactive) | 44 µM (inactive) | 28.1 µM (inactive) | – | 78.7 µM (inactive) | 58.7 µM (inactive) | – | 77.8 µM (inactive) | 33.7 µM (inactive) | 25.6 µM (inactive) | 31 µM (inactive) | 21.9 µM (inactive) | 85.9 µM (inactive) | – | > 100 µM (inactive) | > 100 µM (inactive) | 68.9 µM (inactive) | > 100 µM (inactive)
O=C(C(Cl)=C(Nc1ccccc1)Nc1ccccc1)C(Cl)Cl | 29.6 µM (inactive) | 18.8 µM (inactive) | 14.6 µM (inactive) | 22.5 µM (inactive) | 40.5 µM (inactive) | 33.6 µM (inactive) | 22.6 µM (inactive) | 12.4 µM (inactive) | 16 µM (inactive) | – | 15.5 µM (inactive) | 17.3 µM (inactive) | – | 82.8 µM (inactive) | 40.6 µM (inactive) | 13.2 µM (inactive) | 21.2 µM (inactive) | 28.5 µM (inactive) | 33.2 µM (inactive)
C=C1C(=O)OC2C/C(C)=C/CC/C(C)=C/CCC3(COC(C)=O)OC3CC12 (configuration not stated) | 2.53 µM (inactive) | 3.31 µM (inactive) | 2.51 µM (inactive) | 5.65 µM (inactive) | – | 12.7 µM (inactive) | 19.6 µM (inactive) | – | 4.42 µM (inactive) | 3.33 µM (inactive) | 18.7 µM (inactive) | 6.52 µM (inactive) | 11.6 µM (inactive) | 15.4 µM (inactive) | – | 9.46 µM (inactive) | 8.32 µM (inactive) | 2.7 µM (inactive) | 11.1 µM (inactive)
Cc1ccc(S(=O)(=O)NC(=O)C#CCOC2CCCCO2)cc1 (configuration not stated) | > 100 µM (inactive) | > 100 µM (inactive) | > 100 µM (inactive) | > 100 µM (inactive) | – | > 100 µM (inactive) | > 100 µM (inactive) | – | > 100 µM (inactive) | 82.8 µM (inactive) | – | > 100 µM (inactive) | > 100 µM (inactive) | > 100 µM (inactive) | – | > 100 µM (inactive) | > 100 µM (inactive) | > 100 µM (inactive) | > 100 µM (inactive)
CC1=C(C(=O)NCc2ccccc2)C(/C=C/c2ccccc2)C(C(=O)NCc2ccccc2)=C(C)N1 | > 100 µM (inactive) | > 100 µM (inactive) | > 100 µM (inactive) | > 100 µM (inactive) | – | > 100 µM (inactive) | > 100 µM (inactive) | – | > 100 µM (inactive) | > 100 µM (inactive) | > 100 µM (inactive) | > 100 µM (inactive) | 85.9 µM (inactive) | > 100 µM (inactive) | – | > 100 µM (inactive) | > 100 µM (inactive) | > 100 µM (inactive) | > 100 µM (inactive)
O=C(CCc1ccccc1CO)NCCc1ccccc1 | > 100 µM (inactive) | > 100 µM (inactive) | > 100 µM (inactive) | > 100 µM (inactive) | > 100 µM (inactive) | 36.5 µM (inactive) | > 100 µM (inactive) | > 100 µM (inactive) | > 100 µM (inactive) | > 100 µM (inactive) | > 100 µM (inactive) | > 100 µM (inactive) | 49.1 µM (inactive) | > 100 µM (inactive) | > 100 µM (inactive) | – | > 100 µM (inactive) | > 100 µM (inactive) | > 100 µM (inactive)
COc1c(I)c(OC)c2c(c1I)O[C@@H]1OCC[C@H]21 | 19.7 µM (inactive) | 0.098 µM (active) | 37.4 µM (inactive) | 34.8 µM (inactive) | – | 22.4 µM (inactive) | 74.8 µM (inactive) | – | 20 µM (inactive) | 19.9 µM (inactive) | 17.4 µM (inactive) | 33 µM (inactive) | 27.2 µM (inactive) | 26.1 µM (inactive) | – | 32.4 µM (inactive) | 39.4 µM (inactive) | 27.5 µM (inactive) | 34.2 µM (inactive)
C=C1CC2OC(=O)C(=C)C2C(O)C2C(=C)CCC12 (configuration not stated) | 2.81 µM (inactive) | 5.25 µM (inactive) | 4.05 µM (inactive) | 13.4 µM (inactive) | – | 16.1 µM (inactive) | 6.98 µM (inactive) | – | 2.75 µM (inactive) | 15.7 µM (inactive) | – | 4.1 µM (inactive) | 9.86 µM (inactive) | 4.2 µM (inactive) | – | – | 3.78 µM (inactive) | 2.24 µM (inactive) | 7.28 µM (inactive)
O=C(Nc1ccccc1C(=O)NC(=O)c1ccccc1NC(=O)c1ccccc1)c1ccccc1 | 1.46 µM (inactive) | 10.6 µM (inactive) | 2.88 µM (inactive) | 12 µM (inactive) | – | – | 8.71 µM (inactive) | – | – | 1.87 µM (inactive) | 12.4 µM (inactive) | 5.04 µM (inactive) | 2.83 µM (inactive) | 1.86 µM (inactive) | – | 2.24 µM (inactive) | 2.22 µM (inactive) | 3.91 µM (inactive) | 3.13 µM (inactive)
COC(=O)C(=C/c1ccc(OC)cc1)/C(C(=O)O)=C(/C)c1ccccc1 | > 100 µM (inactive) | > 100 µM (inactive) | > 100 µM (inactive) | > 100 µM (inactive) | – | > 100 µM (inactive) | > 100 µM (inactive) | – | > 100 µM (inactive) | > 100 µM (inactive) | > 100 µM (inactive) | > 100 µM (inactive) | > 100 µM (inactive) | > 100 µM (inactive) | – | > 100 µM (inactive) | > 100 µM (inactive) | > 100 µM (inactive) | –
O=C(c1ccccc1)c1nc2ccc(Cl)cc2c2c1Cc1ccccc1-2 | > 100 µM (inactive) | > 100 µM (inactive) | > 100 µM (inactive) | > 100 µM (inactive) | – | > 100 µM (inactive) | > 100 µM (inactive) | – | > 100 µM (inactive) | > 100 µM (inactive) | > 100 µM (inactive) | > 100 µM (inactive) | 46.5 µM (inactive) | > 100 µM (inactive) | – | > 100 µM (inactive) | – | – | > 100 µM (inactive)
Cc1ccccc1-n1c(CCl)nc2ccc(Br)cc2c1=O | 8.36 µM (inactive) | 1.77 µM (inactive) | 10.2 µM (inactive) | 8.17 µM (inactive) | – | 14.9 µM (inactive) | 18.1 µM (inactive) | – | 19.8 µM (inactive) | 14.6 µM (inactive) | 23.4 µM (inactive) | 12.5 µM (inactive) | 12.8 µM (inactive) | 14.8 µM (inactive) | – | 0.0333 µM (active) | 4.29 µM (inactive) | 0.278 µM (active) | 17.5 µM (inactive)
COc1ccc2nc3cc(Cl)ccc3c(NCCC[N+](C)(C)CCCCCCCCCCCCCCCC[N+](C)(C)CCCNc3c4ccc(Cl)cc4nc4ccc(OC)cc34)c2c1 | 1.47 µM (inactive) | 10.6 µM (inactive) | 2.84 µM (inactive) | 3.63 µM (inactive) | – | > 10 µM (inactive) | 3.21 µM (inactive) | – | 1.43 µM (inactive) | 1.79 µM (inactive) | 2.88 µM (inactive) | 3.15 µM (inactive) | 2.83 µM (inactive) | 2.43 µM (inactive) | – | 1.96 µM (inactive) | 1.61 µM (inactive) | 1.66 µM (inactive) | 2.08 µM (inactive)
Cc1cccc(C)c1NC(=O)C(=O)Nn1c(NN)nc2ccccc2c1=O | > 100 µM (inactive) | > 100 µM (inactive) | > 100 µM (inactive) | > 100 µM (inactive) | – | > 100 µM (inactive) | > 100 µM (inactive) | – | > 100 µM (inactive) | > 100 µM (inactive) | > 100 µM (inactive) | > 100 µM (inactive) | > 100 µM (inactive) | > 100 µM (inactive) | – | > 100 µM (inactive) | > 100 µM (inactive) | > 100 µM (inactive) | > 100 µM (inactive)
CCOC(=O)C1C(c2ccc(Cl)cc2Cl)NC(c2ccc(C)cc2)C(C(=O)OC)S1(=O)=O (configuration not stated) | 74.3 µM (inactive) | > 100 µM (inactive) | > 100 µM (inactive) | 60.5 µM (inactive) | – | 37.9 µM (inactive) | 85.9 µM (inactive) | – | 5.46 µM (inactive) | 95.1 µM (inactive) | > 100 µM (inactive) | > 100 µM (inactive) | 20.1 µM (inactive) | 22.8 µM (inactive) | – | 81.5 µM (inactive) | > 100 µM (inactive) | > 100 µM (inactive) | > 100 µM (inactive)
NN/C(=N\S(=O)(=O)c1cc2ccccc2s1)Nc1ccc(Cl)cc1 | 16 µM (inactive) | 18.5 µM (inactive) | 15.5 µM (inactive) | 19.6 µM (inactive) | 20.1 µM (inactive) | 18 µM (inactive) | 19.2 µM (inactive) | 17.8 µM (inactive) | 18.9 µM (inactive) | 18.1 µM (inactive) | 18.8 µM (inactive) | 22.4 µM (inactive) | 20.6 µM (inactive) | 18.5 µM (inactive) | 20 µM (inactive) | 20.8 µM (inactive) | 19.9 µM (inactive) | – | 25.1 µM (inactive)
